Results as given in publication PMC8839939 (Polymers, 2022).

What was measured:
[1] = cited from earlier work
[2] = In-vivo pharmacokinetic study in mice; settings: mouse, plasma
Experimental: In in-vivo study, the average mouse weight was 24 ± 5 g. Mice were acclimated for 7 days prior to the study and fasted for 24 h before the study. All in-vivo experiments were approved by the ethical committee, Faculty of Pharmacy, Gomal University (No: 10/ERB/GU). The mice were anesthetized under gas anesthesia (i.e., isoflurane in oxygen (2–4% (v/v))). Bulk hairs were removed with an electrical clipper and then a depilatory cream was applied to remove the remaining hair that could interfere with the insertion of LS-TC-MNP [41, 42]. Hairs were removed from the back area of mouse at 4 h prior to experiment. Mice were divided into two groups (n = 16 per group (total: 32)); oral (given the oral LS dispersion) and transdermal (LS-TC-MNP inserted in skin). Mice in the oral group received an oral LS dispersion of (200 mg/kg). The transdermal group was the LS-TC-MNP treatment group, in which each mouse was treated with (LS = 25 mg) LS-TC-MNP. To facilitate the insertion of LS-TC-MNP, the mice were anesthetized by gas anesthesia. The mice skin was pinched, and LS-TC-MNP attached to self-adhesive margins was inserted with firm finger pressure onto the back of each mouse. Blood samples were withdrawn by bleeding the tail vein at predetermined time intervals. The study plan was 16 mice per group and a maximum of (n = 3) blood samples was withdrawn from each mouse. Each mouse was bled twice a day. After 1 and 4 h, blood was withdrawn from the first 4 mice; the next 4 mice were bled after 2 and 6 h; the next four mice at 8 and 24 h; the remaining 4 mice at 12 h; and all mice (n = 16) at 48 h. The area under the curve and other pharmacokinetic parameters were measured by using Pk solver software (Microsoft Excel add-in programm).

concentration at 1 h ([2]; 1 h, patch LS = 25 mg transdermal or oral dispersion 200 mg/kg): 500 ± 1940 ng/mL
concentration at 2 h ([2]; 2 h, oral dispersion 200 mg/kg, read-out: LS plasma concentration): 200 ng/mL
concentration at 4 h ([2]; 4 h, oral dispersion 200 mg/kg, read-out: LS plasma concentration): 180 ng/mL
concentration at 6 h ([2]; 6 h, patch LS = 25 mg transdermal or oral dispersion 200 mg/kg): 400 ± 1370 ng/mL
SMILES: CCN1CCC[C@H]1CNC(=O)c1cc(S(N)(=O)=O)ccc1OC [Levosulpiride, 5-(amino-sulfonyl)-N-[(1-ethyl-2-pyrrolidinyl)methyl]-2-methoxy benzamide]
intravenous dose excreted unchanged in the urine ([1]; intravenous ref 6): 70–90%
half-life ([1]; oral ref 4): about 6 h
oral bioavailability ([1]; oral ref 4): less than 25%
oral dose excreted unchanged in the urine ([1]; oral ref 6): 15–25%
